Source: US20260055111A1, “CRYSTALLINE FORM OF PYRAZOLOPYRIMIDINE ESTER COMPOUND AND METHODS OF PREPARING THE SAME” (Shanghai Maius Pharmaceutical Co. Ltd., priority 2022, published 2026)
Entries after “also recorded” stand apart in the source; their conditions may differ.

Columns and labels:
[1] = Stability study: change in purity of solid forms after storage under different conditions; type: physicochemical; settings: for Purity, Initial (Day 0): before storage; for Overall stability / degree of degradation compared with other forms: forced degradation conditions of the stability study; for Purity, Room Temperature (Day 10): stored at room temperature for 10 days; for Purity, In Light (Day 10): stored in light for 10 days
Description: Samples of the amorphous and crystalline (Forms I and II) compound of formula (I) were stored under different conditions.
Storage conditions for the crystalline form Form II: at 60° C. for 10 days; at 60° C. and 75% RH (relative humidity) for 10 days; in light for 10 days; and at room temperature for 10 days.
Storage conditions for the amorphous and crystalline (Form I) forms: at 40° C. for 10 days; at 60° C. and 75% RH for 10 days; in light for 10 days; and at room temperature for 10 days.

[2] = Hygroscopicity by dynamic vapor sorption (DVS), with XRPD before and after; type: physicochemical
[3] = cited from earlier work
[4] = stored at 60° C. and 75% RH for 10 days
[5] = stored at room temperature and in light for 10 days

C=CC(=O)N1CCC[C@@H](n2nc(-c3ccc(Oc4ccccc4)cc3)c3c(NC(=O)OCCCC)ncnc32)C1 [Form II, 1-[(3R)-3-[4-(butoxycarbonyl)-amino-3-(4-phenoxyphenyl)-1H-pyrazolo[3,4-d]pyrimidin-1-yl]-1-piperidinyl]-2-propen-1-one]
Purity, Initial (Day 0) [1]: 99.13%
Stability in words ([1]; degradation conditions such as high-temperature and high-humidity): stable
Overall stability / degree of degradation compared with other forms [1]: lower degree of degradation than the amorphous form; also recorded: obviously better than the amorphous form and even better than Form I
Purity, 60° C. + 75% RH (Day 10) [1, 4]: 97.80%
Purity, 60° C. (Day 10) ([1]; stored at 60° C. for 10 days): 98.90%
Stability in words [1, 5]: more stable
Purity, Room Temperature (Day 10) [1]: 99.13%
Purity, In Light (Day 10) [1]: 99.17%
XRPD pattern before and after the DVS determination [2]: remained the same

C=CC(=O)N1CCC[C@@H](n2nc(-c3ccc(Oc4ccccc4)cc3)c3c(NC(=O)OCCCC)ncnc32)C1 [Amorphous, 1-[(3R)-3-[4-(butoxycarbonyl)-amino-3-(4-phenoxyphenyl)-1H-pyrazolo[3,4-d]pyrimidin-1-yl]-1-piperidinyl]-2-propen-1-one]
Purity, Initial (Day 0) [1]: 99.07%
Overall stability / degree of degradation compared with other forms [1]: poor stability
Purity, 40° C. (Day 10) ([1]; stored at 40° C. for 10 days): 96.10%
Degradation in words ([1]; stored at 40° C. for 10 days, listed as amorphous): Noticeable degradation
Degradation in words ([1]; stored at 40° C. for 10 days, listed as amorphous compound): Significant degradation
Degradation in words [1, 4]: almost complete degradation
Purity, 60° C. + 75% RH (Day 10) [1, 4]: 0.27%
Purity, Room Temperature (Day 10) [1]: 98.01%
Purity, In Light (Day 10) [1]: 98.63%

C=CC(=O)N1CCC[C@@H](n2nc(-c3ccc(Oc4ccccc4)cc3)c3c(NC(=O)OCCCC)ncnc32)C1 [formula (I), 1-[(3R)-3-[4-(butoxycarbonyl)-amino-3-(4-phenoxyphenyl)-1H-pyrazolo[3,4-d]pyrimidin-1-yl]-1-piperidinyl]-2-propen-1-one]
4-AAM AUC ([3]; AUC of the active metabolite 4-AAM, among the prodrugs of CN 202111131059.0): highest
AUC of the prodrug itself ([3]; among the prodrugs of CN 202111131059.0): lowest
Rate of hydrolysis in blood ([3]; among the pyrazolopyrimidine ester prodrugs of CN 202111131059.0): most rapidly

C=CC(=O)N1CCC[C@@H](n2nc(-c3ccc(Oc4ccccc4)cc3)c3c(NC(=O)OCCCC)ncnc32)C1 [Form I, 1-[(3R)-3-[4-(butoxycarbonyl)-amino-3-(4-phenoxyphenyl)-1H-pyrazolo[3,4-d]pyrimidin-1-yl]-1-piperidinyl]-2-propen-1-one]
Purity, Initial (Day 0) [1]: 98.68%
Overall stability / degree of degradation compared with other forms [1]: lower degrees of degradation than the amorphous form
Purity, 40° C. (Day 10) ([1]; stored at 40° C. for 10 days): 98.60%
Purity, 60° C. + 75% RH (Day 10) [1, 4]: 90.62%
Stability in words [1, 5]: very stable; also recorded: remaining stable
Purity, Room Temperature (Day 10) [1]: 98.64%
Purity, In Light (Day 10) [1]: 98.62%
Hygroscopicity [2]: almost non-hygroscopic
